In patent publication US9827219B2, “Compositions and methods for lowering levels of high-sensitivity C-reactive protein (HS-CRP) in a subject” (priority 2012, dated 2017):

Test system: IL-6
Test: MARINE study, IL-6
Assay type: in vivo, human
Details: MARINE ITT, week 12
Procedure: A multi-center, placebo-controlled randomized, double-blind, 12-week study with an open-label extension was performed to evaluate the efficacy and safety of AMR101 in patients with fasting triglyceride levels ≧500 mg/dL. The primary objective of the study was to determine the efficacy of AMR101 2 g daily and 4 g daily, compared to placebo, in lowering fasting TG levels in patients with fasting TG levels ≧500 mg/dL and ≦1500 mg/dL (≧5.65 mmol/L and ≦16.94 mmol/L).
The population for this study was men and women (women of childbearing potential will need to be on contraception or practice abstinence)>18 years of age with a body mass index ≦45 kg/m^2 who were not on lipid-altering therapy or were currently on lipid-altering therapy. Patients currently on statin therapy (with or without ezetimibe) were evaluated by the investigator as to whether this therapy can be safely discontinued at screening, or if it should be continued. If statin therapy (with or without ezetimibe) was to be continued, dose(s) must have been stable for ≧4 weeks prior to randomization. Patients taking non-statin, lipid-altering medications (niacin >200 mg/day, fibrates, fish oil, other products containing omega-3 fatty acids, or other herbal products or dietary supplements with potential lipid-altering effects), either alone or in combination with statin therapy (with or without ezetimibe), must have been able to safely discontinue non-statin, lipid-altering therapy at screening.
Approximately 240 patients were randomized at approximately 50 centers in North America, South America, Central America, Europe, India, and South Africa. The study was a 58- to 60-week, Phase 3, multi-center study consisting of 3 study periods: (1) A 6- to 8-week screening period that included a diet and lifestyle stabilization and washout period and a TG qualifying period; (2) A 12-week, double-blind, randomized, placebo-controlled treatment period; and (3) A 40-week, open-label, extension period.
After confirmation of qualifying fasting TG values, eligible patients entered a 12-week, randomized, double-blind treatment period. At Visit 4 (Week 0), patients were randomly assigned to 1 of the following treatment groups: • AMR101 2 g daily, • AMR101 4 g daily, or • Placebo.
Eligible patients were randomly assigned at Visit 4 (Week 0) to receive orally AMR101 2 g daily, AMR101 4 g daily, or placebo for the 12-week double-blind treatment period. AMR101 was provided in 1 g liquid-filled, oblong, gelatin capsules. The matching placebo capsule was filled with light liquid paraffin and contained 0 g of AMR101. During the double-blind treatment period, patients took 2 capsules (AMR101 or matching placebo) in the morning and 2 in the evening for a total of 4 capsules per day. […]

SMILES: CC/C=C\C/C=C\C/C=C\C/C=C\C/C=C\CCCC(=O)OCC [AMR101, all-cis eicosa-5,8,11,14,17-pentaenoic acid ethyl ester]
- IL-6 change from baseline (median) (2 g/day): 3.4%
- IL-6 end-of-treatment value (median) (2 g/day): 3.0 pg/mL
- IL-6 change from baseline (median) (4 g/day): 0.3%
- IL-6 end-of-treatment value (median) (4 g/day): 2.4 pg/mL
